Measured values from US20030005484A1, “Microbiocidal and pesticidal aromatic aldehydes” (ProGuard, Inc., priority 1994, published 2003).
“And” between values parts separate entries of the source, which are not always exact repeats. Equal entries are not always repeated.

What was measured:
[1] = system: melon aphid (Aphis gossypii Glover); assay: melon aphid on chrysanthemum leaves, 5% HCA formulations; type: in vivo; details: 5% HCA (emulsion with 1% Tween 20 in water, or microencapsulated); 24 hours
Procedure: For each test, treatment cartons received the active ingredient as a 5% aqueous emulsion or as microcapsules in either beeswax or carnauba wax. The negative control was a water only treatment. Sprays of each treatment were applied using a laboratory spray tower calibrated to spray the field equivalent of 113 liters per acre. The paper carton arenas were maintained at room temperature. Experimental cartons were examined at 24 hours post-treatment and % mortality determined (see FIG. 3). Every treatment regimen killed 100% of the melon aphids at 24 hours.

[2] = system: thrips insects (Frankliniella occidentalis); assay: residual activity on filter paper against thrips; type: in vivo; details: residue on filter paper, rehydrated 24 and 72 hours after spraying; thrips mortality after one hour
Procedure: In the first experiment, two ml of two concentrations of CNMA (0.3 and 1%) were sprayed on filter paper (Whatman). As a negative control, two ml of water also were sprayed on filter paper. Twenty-four hours later, two ml of water were sprayed on treatment and control filter paper, which were then dried for 30 min. Approximately 30 thrips insects (Frankliniella occidentalis) were introduced and the number of F. occidentalis were observed after one hour. Mean mortality was calculated for each treatment.
After 72 hours, the treatment filter papers were flipped over and only the negative control filter paper and the filter paper treated with 1% CNMA were sprayed with 2 ml of water and allowed to dry for 30 minutes. Approximately 30 thrips were introduced to the two treated filter papers and after one hour the number of dead F. occidentalis were observed and the mean mortality calculated for each treatment. A similar assay was conducted using a-hexyl cinnamaldehyde. Mean mortality was higher for rehydrated filter papers compared to non-rehydrated filter papers over time.

grape phylloxera eggs = assay: whole plant or invertebrate
Procedure: Mixed age groups of 60 grape phylloxera eggs were established on filter paper (Whatman #1, 5.5 cm circles) in 50×9 mm sealed plastic petri dishes treated with 100 μl of solution. A selected concentration of a test formulation of 400 μl was added to the filter disk and the dish closed with the petri dish cover and placed in a plastic container box. After 6 hours, the box was placed in an environmental chamber at 24° C. in the dark. The eggs were placed in groups of 10. After one week, the percentage of hatch is determined. In an initial test, doses from 0.1 to 25,000 ppm cinnamic aldehyde in 6% NaHCO3 and 2% Tween 80 were evaluated with a single group of eggs at each dosage. Three replicates of the experiment were performed. […] LD50 and LD95 were determined by probit analysis.
Grape phylloxera eggs were treated with cinnamaldehyde (CNMA) in a 6% NaHCO3, 2% Tween-80 formulation in a laboratory bioassay. Mortality of the eggs was indicated by failure of the egg shell to split. […] Leaves of one-year-old greenhouse Vitis vinifera cultivar Merlot vines heavily infested with grape phylloxera were sprayed to run-off with a CNMA treatment using the same formulation. […] Roots taken from plants 1, 2 and 5 weeks after CNMA or other treatments were placed in Petri dish bioassays and infested with untreated phylloxera eggs.
Eggs of various age classes were placed on Whatman #1 filter paper moistened with enough treatment solution to form a meniscus about halfway up the sides of the eggs. The pieces of filter paper with eggs were maintained in sealed plastic Petri dishes at […] until they were 7 days old and then hatched individuals were counted. Hatch was considered successful if the […]

[3] = 25° C; cited from earlier work
rust = rust (and spores) on roses, disease rating / MPDC after foliar spray; type: in vivo, Phragmidrium mucronatrum
Procedure: (§1) Each formulation is evaluated for its effect on specific pests and/or plant host using any of the compounds of formula (1) as well as other components of the formulation such as Tween 80 and/or sodium bicarbonate, with the combination and effective amount of each component adapted for a particular application to minimize toxicity while maintaining or increasing the antipathogenic effect of the formulation. The effective amount of each component may be determined by systematically varying the amount of that component in a test formulation, treating a plant of interest with the test formulation, and monitoring the level of pest infestation compared to an untreated control plant. An effective amount of a test component is identified as the amount that controls the growth of the pathogen on the plant host, thus reducing the disease rating of the plant. The mean percentage disease […] (MPDC) can be calculated for each particular application. MPDC is defined by the formula: [formula] Eight cultivars of rose were tested to investigate the effect of a cinnamic aldehyde/NaHCO3 formulation on rust and spores. The cultivars used included Moss unnamed (Moss), […], Rosette Delize (Hybrid Tea), Rosa Rugosa Rubra (Rugosa), Abel Morrison (Hybrid perpetual), John Laing, Betty Prior, and Rose de Roi. […] The Hybrid Tea and Hybrid perpetual were rated 3 and the Rugosa was rated 1. […] Control plants received no treatment. […] Moreover, the treatment appeared to have induced systemic resistance. […] Plants were an average of 0.86 m apart. […] Controls were untreated plants. […] Weekly reviews were made of the various plants. […] Six cultivars of infected rose in dedicated experimental rose gardens were used. Four Mrs. John Laing (Hybrid perpetual) and two Marchionese of Londonderry (Hybrid perpetual) rose plants were treated with one of two formulations of coniferyl aldehyde. […] The first two Mrs. […] Mrs. […] Both Marchionese of Londonderry plants (P5 and P6) were rated 5 for powdery mildew and rust after Paulus and Nelson (supra). Two treatment formulae were used for this trial. […] Control plants were sprayed with water alone. The change in the rating from pre-treatment to post-treatment was calculated as the mean percentage of disease control (MPDC) as described herein.

aphids = aphids on sprayed roses; type: in vivo; details: plants P3 (T2) and P4 (T1), each with >35 insects before treatment
powdery mildew = powdery mildew on roses, disease rating / MPDC after foliar spray; type: in vivo, Sphaerotheca pannosa; details: for Powdery Mildew, Post (rating): ~100 ml spray; for Mean % Disease Control, rose powdery mildew: single 100 ml foliar spray
Procedure: as §1, with “herein. A three treatment experiment with cinnamic aldehyde formula, coniferyl aldehyde formula and combined cinnamic and coniferyl aldehyde formula was carried out on field grown roses known to be susceptible to powdery mildew. The plants were blocked by variety before fungicide treatments and were randomized as to the plants. Two varieties were used in each of the three experiments described below. […] In experiment 3 Comte de Chambord (Portland) and Madame Pierre Oger (Bourbon) were used. In Experiment 1, the effect of cinnamic aldehyde alone and in combination with Tween 80 and/or NaHCO3 component was evaluated in experiment 2 the effect of coniferyl aldehyde alone and in combination with Tween 80 and/or NaHCO3 was evaluated and in experiment 3 a combination of cinnamic aldehyde and coniferyl aldehyde with Tween 80 and/or NaHCo3 was evaluated. […] See Table 3 for the treatment protocol; formula 1 was used for these experiments. […] Plants were evaluated using the Paulus/Nelson scale just prior to and four days after treatment. […] Moreover, cinnamic aldehyde, coniferyl aldehyde, Tween 80 and NaHCO3 are used in the food industry and there is likely to be little toxicological risk to the consumer or handler from any horticultural or food crop sprayed in this way. Similarly, as these chemicals leave no toxic residue, there is little chance of any detrimental effect on the wider environment, and their use is likely to be compatible with current biological control methods such as beneficial insects and/or microorganisms.” for “herein.”

[4] = T1 low dose: 5 g coniferyl aldehyde, 10 g Tween 80, 80 g NaHCO3 per 1000 g, plants P1, P4, P6
[5] = T2 high dose: 100 g coniferyl aldehyde, 20 g Tween 80, 120 g NaHCO3 per 1000 g, plants P2, P3, P5
[6] = baseline before T1 low dose, plants P1, P4, P6
[7] = baseline before T2 high dose, plants P2, P3, P5
[8] = 1000 ppm in 6% NaHCO3, 2% Tween 80, 7 days

## CCCCCC/C(C=O)=C/c1ccccc1 [HCA, 2-hexyl-3-phenyl-2-propenal]
[1]
  melon aphids killed: 100%
[2]
  residual activity: have residual activity
Grape phylloxera eggs; 560 ppm, egg tests with CNMA analogs
  egg hatch failure / mortality at 560 ppm: no hatch failure at 560 ppm; rapid
Grape phylloxera eggs; Daktulosphaira vitifoliae, read-out: rapid nymphal mortality
  mortality at 100 ppm: 100%
[3]
  vapor pressure: 70×10^−5 mm Hg

## CCN(CC)c1cccc(C)c1 [N,N-diethyl-m-toluamine, reference compound]
[3]
  vapor pressure: 167×10^−5 mm Hg

## COc1cc(/C=C/C=O)ccc1O [coniferyl aldehyde]
rust; [4]
  Rust (rating), Change: 1 and 2
rust; [5]
  Rust (rating), Change: 3 and 4
  Rust (rating), Post: 2 (2=26-50) and 1 (1=1-25)
rust; [6]
  Rust (rating), Pre: 3 (3=51-75) and 4 (4=76-90)
rust; [7]
  Rust (rating), Pre: 5 (5=>90% total leaves per bush)
Grape phylloxera eggs; [8]
  eggs hatched incompletely (IH): 85%
  nymphs that died in the shell (DIS): 12%
Grape phylloxera eggs; 5000 ppm aldehyde in 6% NaHCO3, 2% Tween 80, 7 days
  nymphs that died in the shell (DIS): 10%
aphids
  aphids on treated rose plants: eliminated
Powdery mildew; [4]
  Powdery Mildew, Post (rating): 2 (2=26-50) and 1 (1=1-25)
Powdery mildew; [5]
  Powdery Mildew, Change in rating: 3 and 4
  Powdery Mildew, Post (rating): 2 (2=26-50) and 1 (1=1-25)
Powdery mildew; aldehyde 5 g (mixture 2.5 g + 2.5 g) with NaHCO3 (80 g), four days
  Mean % Disease Control, rose powdery mildew: 44%
Powdery mildew; aldehyde 5 g (mixture 2.5 g + 2.5 g) with T80 (10 g), four days
  Mean % Disease Control, rose powdery mildew: 44%
Powdery mildew; aldehyde 5 g (mixture 2.5 g + 2.5 g) with T80 + NaHCO3 (formulas G, M, Q), four days
  Mean % Disease Control, rose powdery mildew: 81%
Powdery mildew; aldehyde 5 g (mixture 2.5 g + 2.5 g), no additive, rated four days after treatment
  Mean % Disease Control, rose powdery mildew: 56%
Powdery mildew; [6]
  Powdery Mildew, Pre (rating): 3 (3=51-75) and 4 (4=76-90)
Powdery mildew; [7]
  Powdery Mildew, Pre (rating): 5 (5=>90% total leaves per bush)
